Molecules are shown by their SMILES. Calls of active or inactive are those of the source. The rule behind the calls is not given here.

The results in this text go back to ChEMBL document CHEMBL4419164, “Methods and compositions for inhibiting cnksr1” (2018).

Data set [1] is described as follows: Half life in 10% fetal bovine serum at 50 ug/ml at 37 degC at pH 7.4. It counts as ADME, cell-free, Bos taurus. The note with it: cattle.
Data set [2] addresses T1, Connector enhancer of kinase suppressor of ras 1 (Homo sapiens) (UniProt Q969H4).
T1 sequence (whole entry): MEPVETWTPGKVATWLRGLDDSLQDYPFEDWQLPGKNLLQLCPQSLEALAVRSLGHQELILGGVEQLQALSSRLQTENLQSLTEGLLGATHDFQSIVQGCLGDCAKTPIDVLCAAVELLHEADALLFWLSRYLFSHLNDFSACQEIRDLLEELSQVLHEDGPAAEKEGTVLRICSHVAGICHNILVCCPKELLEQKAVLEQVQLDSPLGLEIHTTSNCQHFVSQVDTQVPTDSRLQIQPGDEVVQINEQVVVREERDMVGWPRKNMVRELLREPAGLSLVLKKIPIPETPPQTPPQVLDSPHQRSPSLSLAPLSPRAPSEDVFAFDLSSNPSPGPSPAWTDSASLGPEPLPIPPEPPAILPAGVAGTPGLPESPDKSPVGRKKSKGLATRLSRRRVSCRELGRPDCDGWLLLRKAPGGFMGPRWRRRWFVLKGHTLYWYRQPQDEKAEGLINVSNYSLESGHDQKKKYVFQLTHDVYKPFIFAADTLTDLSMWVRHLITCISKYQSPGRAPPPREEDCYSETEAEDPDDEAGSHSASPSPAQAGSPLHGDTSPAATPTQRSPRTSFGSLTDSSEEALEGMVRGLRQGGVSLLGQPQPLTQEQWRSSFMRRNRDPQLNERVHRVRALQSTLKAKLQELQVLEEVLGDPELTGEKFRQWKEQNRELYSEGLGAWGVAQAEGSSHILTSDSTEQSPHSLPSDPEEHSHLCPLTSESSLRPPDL
Briefly: Inhibition of CNKSR1 (unknown origin) assessed as reduction in inhibition of KRas signaling effectors by measuring GTP-RalA levels at 20 uM by cell based assay.

Data set [3] deals with T2, carboxylesterase 1 (liver carboxylesterase 1) (Homo sapiens, UniProt P23141).
T2 sequence (P23141 whole entry): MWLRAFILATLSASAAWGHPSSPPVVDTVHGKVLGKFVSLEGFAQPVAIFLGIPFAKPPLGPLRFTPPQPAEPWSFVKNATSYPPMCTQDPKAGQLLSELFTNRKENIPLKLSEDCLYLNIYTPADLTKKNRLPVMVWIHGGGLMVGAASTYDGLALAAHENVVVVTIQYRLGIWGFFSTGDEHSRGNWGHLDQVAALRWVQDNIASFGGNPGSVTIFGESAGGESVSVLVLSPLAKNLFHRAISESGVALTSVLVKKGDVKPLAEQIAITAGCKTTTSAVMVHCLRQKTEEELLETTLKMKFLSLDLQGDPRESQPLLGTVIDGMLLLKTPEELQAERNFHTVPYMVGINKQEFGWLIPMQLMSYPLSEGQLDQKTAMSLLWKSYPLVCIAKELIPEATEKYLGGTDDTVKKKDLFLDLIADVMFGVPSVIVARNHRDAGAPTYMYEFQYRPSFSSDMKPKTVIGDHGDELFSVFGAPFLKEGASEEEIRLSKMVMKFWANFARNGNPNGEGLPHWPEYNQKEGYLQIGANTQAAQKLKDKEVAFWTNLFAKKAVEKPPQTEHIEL
Briefly: Stability assessed as recombinant human carboxyesterase-1 mediated compound hydrolysis by measuring half life at 50 ug/ml at 37 degC at pH 7.4. The note with it: recombinant human carboxylesterase-1, pH 7.4. The data set is classed as ADME.

Data set [4] in a line: Half life in human plasma at 50 ug/ml at 37 degC at pH 7.4. The data set is classed as ADME, cell-free.
Data set [5] concerns the target T1, Connector enhancer of kinase suppressor of ras 1 (Homo sapiens). In words: Inhibition of GFP-tagged CNKSR1 (unknown origin) expressed in HEK293T cells assessed as inhibition of direct binding of CNKSR1 to mut-KRAS at 50 uM incubated for 4 hrs by fluorescence lifetime imaging microscopy. The data set is classed as cell-based.
Data set [6] is described as follows: Half life in beagle dog plasma at 50 ug/ml at 37 degC at pH 7.4. The data set is classed as ADME, cell-free, Canis lupus familiaris.
Data set [7] concerns the target T1, Connector enhancer of kinase suppressor of ras 1 (Homo sapiens). In words: Inhibition of GFP-tagged CNKSR1 (unknown origin) expressed in HEK293T cells assessed as reduction in total mutant-KRas protein at 50 uM incubated for 4 hrs by confocal imaging assay. It counts as cell-based.
The target in data set [8] is Rho guanine nucleotide exchange factor TIAM1 (Homo sapiens) (UniProt Q13009). Briefly: Binding affinity to TIAM1 PH-domain (unknown origin) at 0.01 to 50 uM by SPR spectroscopy.
The target in data set [9] is T3, carboxylesterase 2 (cocaine esterase) (Homo sapiens, UniProt O00748).
T3 sequence (O00748 whole entry): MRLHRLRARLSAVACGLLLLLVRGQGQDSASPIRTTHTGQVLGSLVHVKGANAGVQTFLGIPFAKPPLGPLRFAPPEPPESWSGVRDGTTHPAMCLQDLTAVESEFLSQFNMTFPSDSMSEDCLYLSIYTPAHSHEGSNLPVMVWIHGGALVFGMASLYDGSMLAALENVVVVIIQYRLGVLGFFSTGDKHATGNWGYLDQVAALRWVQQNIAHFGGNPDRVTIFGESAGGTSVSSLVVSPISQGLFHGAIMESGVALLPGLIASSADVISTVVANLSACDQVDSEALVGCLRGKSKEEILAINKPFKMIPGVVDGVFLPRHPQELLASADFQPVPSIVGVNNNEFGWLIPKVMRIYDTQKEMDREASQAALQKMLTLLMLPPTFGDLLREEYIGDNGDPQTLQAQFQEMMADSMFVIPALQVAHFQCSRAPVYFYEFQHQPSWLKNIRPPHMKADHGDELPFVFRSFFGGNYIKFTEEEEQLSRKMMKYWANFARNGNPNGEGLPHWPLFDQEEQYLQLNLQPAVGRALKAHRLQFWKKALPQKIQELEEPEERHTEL
Briefly: Stability assessed as recombinant human carboxyesterase-2 mediated compound hydrolysis by measuring half life at 50 ug/ml at 37 degC at pH 7.4. It counts as ADME. The note with it: recombinant human carboxylesterase-2, pH 7.4.

A short description of data set [10]: Terminal half life in iv dosed mouse. It counts as ADME, organism-based. The note with it: in vivo, read-out: beta t1/2.

Rho guanine nucleotide exchange factor TIAM1 (Homo sapiens), sequence (Q13009 whole entry): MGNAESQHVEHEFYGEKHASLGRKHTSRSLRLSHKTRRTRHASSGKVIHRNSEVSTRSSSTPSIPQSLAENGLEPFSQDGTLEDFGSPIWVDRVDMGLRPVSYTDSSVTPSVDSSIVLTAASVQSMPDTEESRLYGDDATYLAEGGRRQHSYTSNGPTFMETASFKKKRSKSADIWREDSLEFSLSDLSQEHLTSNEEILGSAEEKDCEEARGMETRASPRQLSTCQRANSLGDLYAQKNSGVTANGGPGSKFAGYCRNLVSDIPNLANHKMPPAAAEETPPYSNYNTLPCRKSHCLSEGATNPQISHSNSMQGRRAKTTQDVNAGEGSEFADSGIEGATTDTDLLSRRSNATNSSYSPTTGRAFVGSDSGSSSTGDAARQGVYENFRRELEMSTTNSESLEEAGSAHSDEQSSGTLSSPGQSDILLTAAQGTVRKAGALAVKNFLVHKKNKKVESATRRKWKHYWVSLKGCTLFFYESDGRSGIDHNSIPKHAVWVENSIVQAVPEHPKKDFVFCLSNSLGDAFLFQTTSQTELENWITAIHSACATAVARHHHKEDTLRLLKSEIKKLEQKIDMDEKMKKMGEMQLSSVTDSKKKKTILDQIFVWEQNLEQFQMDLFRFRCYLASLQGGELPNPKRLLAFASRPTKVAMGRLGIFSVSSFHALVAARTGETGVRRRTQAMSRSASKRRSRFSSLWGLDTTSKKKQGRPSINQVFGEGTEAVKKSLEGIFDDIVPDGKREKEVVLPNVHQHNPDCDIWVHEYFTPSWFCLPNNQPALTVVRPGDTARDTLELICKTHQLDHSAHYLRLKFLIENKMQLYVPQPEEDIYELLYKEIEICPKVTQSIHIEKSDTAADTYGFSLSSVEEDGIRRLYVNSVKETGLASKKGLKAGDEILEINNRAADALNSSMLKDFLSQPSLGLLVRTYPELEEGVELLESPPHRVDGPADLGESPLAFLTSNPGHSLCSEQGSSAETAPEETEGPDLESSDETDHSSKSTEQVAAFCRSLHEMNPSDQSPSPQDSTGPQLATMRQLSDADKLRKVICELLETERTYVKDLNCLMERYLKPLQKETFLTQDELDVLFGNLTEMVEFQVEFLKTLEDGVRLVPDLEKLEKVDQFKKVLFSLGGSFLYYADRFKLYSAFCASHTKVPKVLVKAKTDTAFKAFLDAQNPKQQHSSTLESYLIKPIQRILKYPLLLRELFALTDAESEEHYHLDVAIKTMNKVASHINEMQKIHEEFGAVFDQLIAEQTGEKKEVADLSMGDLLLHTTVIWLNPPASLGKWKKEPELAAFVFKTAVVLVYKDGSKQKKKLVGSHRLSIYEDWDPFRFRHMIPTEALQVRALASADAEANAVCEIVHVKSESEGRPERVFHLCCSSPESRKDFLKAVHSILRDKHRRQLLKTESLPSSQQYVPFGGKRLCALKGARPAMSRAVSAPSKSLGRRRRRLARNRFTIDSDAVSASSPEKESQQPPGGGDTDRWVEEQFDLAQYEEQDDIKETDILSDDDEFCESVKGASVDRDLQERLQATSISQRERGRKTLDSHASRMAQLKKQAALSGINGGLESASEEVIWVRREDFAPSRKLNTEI

For `CCOC(=O)Cc1nn(Cc2nc(-c3ccc(C)cc3)cs2)c(=O)c2ccccc12`, the half-life at 50 ug/ml in data set [1] came to 790 min; in data set [3] it was 19 min; in data set [6], 558 min; in [9], 99 min. Further, the inhibition result in [2], in data set [5] and in data set [7] was “Active” throughout. In addition, in [4], the t1/2 result is “Stable”. For the same compound, the result in data set [8] was inactive. The half-life in data set [10] is 3 min.
